#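 96-well plates; 48 h exposure; 5 concentrations. Endpoints by linear interpolation between flanking doses. Not reached: highest tested concentration assigned. Abbreviation: GI50, concentration required for 50% inhibition of growth.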 Activity calls are given as the source filed them. Rule as the data show it: active = GI50 up to about 1.1 µM and inactive = higher.
# Assays:
# Assay in all cases: NCI anticancer screen, dose series, 48 h
# [1] = system: CCRF-CEM
# [2] = system: DMS-114
# [3] = system: HCT-116
# [4] = system: HL-60
# [5] = system: HOP-62
# [6] = system: IGROV-1
# [7] = system: K562
# [8] = system: KM12
# [9] = system: MDA-N
# [10] = system: NCI-H522
# [11] = system: OVCAR-3
# [12] = system: OVCAR-4
# [13] = system: OVCAR-5
# [14] = system: SF-268
# [15] = system: SK-MEL-2
# [16] = system: SK-OV-3
# [17] = system: SN12C
# [18] = system: SW-620
# [19] = system: UACC-257
# [20] = system: UACC-62
compound,measurement,setting,value
O=C1/C(=C/c2ccccc2)CN(C(=O)CCN2CCCC2)C/C1=C\c1ccccc1,GI50,[1],286 nM (active)
same,GI50,[2],2070 nM (inactive)
same,GI50,[3],355 nM (active)
same,GI50,[4],298 nM (active)
same,GI50,[5],7310 nM (inactive)
same,GI50,[6],2670 nM (inactive)
same,GI50,[7],287 nM (active)
same,GI50,[8],607 nM (active)
same,GI50,[9],426 nM (active)
same,GI50,[10],1310 nM (inactive)
same,GI50,[11],2080 nM (inactive)
same,GI50,[12],1570 nM (inactive)
same,GI50,[13],3160 nM (inactive)
same,GI50,[14],1720 nM (inactive)
same,GI50,[15],2770 nM (inactive)
same,GI50,[16],8260 nM (inactive)
same,GI50,[17],1510 nM (inactive)
same,GI50,[18],230 nM (active)
same,GI50,[19],2450 nM (inactive)
same,GI50,[20],1610 nM (inactive)
